Counter-ions that a name gives are not always drawn.
What follows are compounds tested against T1, TLR7/NFKb HEK cells (Homo sapiens, UniProt Q9NYK1) (assay: HEK Cell Assay (TLR7/NFKb reporter, Steady-Glo luciferase readout)). Conditions: 30 min compound preincubation, then R*48 agonist for 5 hours, read-out: Potency.
T1 construct: expressed in transfected cells; host or cells: HEK cells (TLR7/NFKb reporter line)
T1 sequence (Q9NYK1 27-1049): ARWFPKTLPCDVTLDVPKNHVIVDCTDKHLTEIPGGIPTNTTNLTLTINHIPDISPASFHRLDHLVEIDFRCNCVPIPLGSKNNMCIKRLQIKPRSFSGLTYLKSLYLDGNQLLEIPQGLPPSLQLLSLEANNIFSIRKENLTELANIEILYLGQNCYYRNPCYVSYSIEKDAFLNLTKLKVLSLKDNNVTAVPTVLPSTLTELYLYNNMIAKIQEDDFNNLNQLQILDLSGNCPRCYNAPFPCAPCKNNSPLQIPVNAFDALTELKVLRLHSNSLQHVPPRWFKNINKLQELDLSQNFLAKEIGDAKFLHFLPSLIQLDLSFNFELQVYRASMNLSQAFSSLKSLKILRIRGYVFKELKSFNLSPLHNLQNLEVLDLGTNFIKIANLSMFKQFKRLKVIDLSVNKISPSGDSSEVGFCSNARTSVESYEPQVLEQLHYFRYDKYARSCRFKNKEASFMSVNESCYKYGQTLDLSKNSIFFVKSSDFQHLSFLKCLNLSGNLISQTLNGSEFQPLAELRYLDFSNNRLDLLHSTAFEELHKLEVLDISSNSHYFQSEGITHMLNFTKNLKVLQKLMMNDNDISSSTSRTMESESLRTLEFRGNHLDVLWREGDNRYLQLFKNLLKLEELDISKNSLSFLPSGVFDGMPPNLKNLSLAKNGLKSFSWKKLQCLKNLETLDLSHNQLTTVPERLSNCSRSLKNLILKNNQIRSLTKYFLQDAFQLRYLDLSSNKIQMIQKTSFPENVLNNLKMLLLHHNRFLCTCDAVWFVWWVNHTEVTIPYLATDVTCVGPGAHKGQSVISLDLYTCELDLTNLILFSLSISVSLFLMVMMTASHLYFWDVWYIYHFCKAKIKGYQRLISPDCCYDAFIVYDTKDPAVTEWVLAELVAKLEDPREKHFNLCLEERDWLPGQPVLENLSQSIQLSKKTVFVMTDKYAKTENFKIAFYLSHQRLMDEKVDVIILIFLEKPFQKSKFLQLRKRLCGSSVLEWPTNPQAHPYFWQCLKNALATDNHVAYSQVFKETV
Format: cell-based
Method in brief: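 Steady-Glo luminescence after 5 h stimulation with R*48 agonist, following 30 min compound preincubation. Assay run in HEK cells carrying a TLR7/NFKb luciferase reporter, plated at 5000 cells/well and grown 24 h at 37° C (10% CO2) before treatment.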

Row | IC50 | SMILES
1 | 1000 to 10000 nM | CCC(C)CC(=O)N[C@@H]1C[C@H](C)CN(c2ccnc3nccnc23)C1 (single isomer, unassigned) [Compound 153]
2 | < 1000 nM | C[C@H]1C[C@@H](N)CN(c2ccc(O)c3ncccc23)C1 [Compound 200, 5-[(3R,5S)-3-amino-5-methylpiperidin-1-yl]quinolin-8-ol hydrochloride]
3 | < 1000 nM | C[C@H]1C[C@@H](NC2CCN(C)C2=O)CN(c2ccc(Cl)c3ncccc23)C1 (single isomer, unassigned) [Compound 261]
4 | 1000 to 10000 nM | N#Cc1ccc(N2CCC(C(=O)NCCN3CCC(F)(F)CC3)CC2)c2cccnc12 [Compound 427, 1-(8-Cyano-quinolin-5-yl)-piperidine-4-carboxylic Acid [2-(4,4-difluoro-piperidin-1-yl)-ethyl]-amide]
5 | < 1000 nM | CCN(C)[C@H](C)C(=O)N[C@@H]1C[C@H](C)CN(c2ccc(C#N)c3nccnc23)C1 [Compound 98, (2R)—N-[(3R,5S)-1-(8-cyanoquinoxalin-5-yl)-5-methylpiperidin-3-yl]-2-[ethyl(methyl)amino]propanamide]
6 | 1000 to 10000 nM | CCN(CC)CCNCC1CCN(c2cc(C)nc3ccc(F)cc23)CC1 [Compound 374, N,N-diethyl-N′-[1-(6-fluoro-2-methyl-quinolin-4-yl)-piperidin-4-ylmethyl]-ethane-1,2-diamine]
7 | < 1000 nM | C[C@H]1C[C@@H](NC(=O)C2CCN(C3CC3)CC2)CN(c2ccc(C(F)(F)F)c3ncccc23)C1 [Compound 574, 1-Cyclopropyl-piperidine-4-carboxylic acid [(3R,5S)-5-methyl-1-(8-trifluoromethyl-quinolin-5-yl)-piperidin-3-yl]-amide]
8 | > 10000 nM | O=C(CN1CCOCC1)N[C@H]1C[C@@H](C2CC2)CN(c2ccc(C(F)(F)F)c3ncccc23)C1 (relative stereo) [Compound 336, cis-N-[5-cyclopropyl-1-[8-(trifluoromethyl)quinolin-5-yl]piperidin-3-yl]-2-(morpholin-4-yl)acetamide]
9 | < 1000 nM | C[C@H]1C[C@@H](NC(=O)CN2CCCN(C)CC2)CN(c2ccc(C(F)(F)F)c3ncccc23)C1 [Compound 290, 2-(4-methyl-1,4-diazepan-1-yl)-N-[(3R,5S)-5-methyl-1-[8-(trifluoromethyl)quinolin-5-yl]piperidin-3-yl]acetamide]
10 | < 1000 nM | C[C@H]1C[C@@H](NC(=O)CN(C)C)CN(c2ccc(C(F)(F)F)c3nccnc23)C1 [Compound 254, 2-(dimethylamino)-N-[(3R,5S)-5-methyl-1-[8-(trifluoromethyl)quinoxalin-5-yl]piperidin-3-yl]acetamide]
11 | 1000 to 10000 nM | CC(O)C(=O)N[C@@H]1C[C@H](C)CN(c2ccc(C(F)F)c3ncccc23)C1 (stereo partly drawn) [Compound 302, N-[(3R,5S)-1-[8-(difluoromethyl)quinolin-5-yl]-5-methylpiperidin-3-yl]-2-hydroxypropanamide]
12 | 1000 to 10000 nM | CCN(CC)CCNCC1CCN(c2ccnc3cc(C)ccc23)CC1 [Compound 389, N,N-Diethyl-N′-[1-(7-methyl-quinolin-4-yl)-piperidin-4-ylmethyl]-ethane-1,2-diamine]
13 | < 1000 nM | C[C@@H]1C[C@H](C(=O)NCCN2CCN(C)CC2)CN(c2ccc(C#N)c3nccnc23)C1 (relative stereo) [Compound 537, cis-1-(8-Cyano-quinoxalin-5-yl)-5-methyl-piperidine-3-carboxylic acid [2-(4-methyl-piperazin-1-yl)-ethyl]-amide]
14 | < 1000 nM | CC(C)(C)CC(=O)N[C@H]1C[C@@H](C(F)(F)F)CN(c2ccc(C#N)c3nccnc23)C1 (relative stereo) [Compound 85, cis-N-[1-(8-cyanoquinoxalin-5-yl)-5-(trifluoromethyl)piperidin-3-yl]-3,3-dimethylbutanamide]
15 | < 1000 nM | CCCN1CCN(C[C@H]2CN(c3ccnc4nccnc34)C[C@@H](C)O2)CC1 [Compound 52, (2R,6S)-2-methyl-6-((4-propylpiperazin-1-yl)methyl)-4-(pyrido[2,3-b]pyrazin-8-yl)morpholine]
16 | > 10000 nM | C[C@H]1C[C@@H](NC(=O)Cc2c[nH]cn2)CN(c2ccnc3nccnc23)C1 [Compound 131, 2-(1H-imidazol-4-yl)-N-[(3R,5S)-5-methyl-1-[pyrido[2,3-b]pyrazin-8-yl]piperidin-3-yl]acetamide]
17 | < 1000 nM | N#Cc1ccc(N2CC(NC(=O)CC3(N)CCOCC3)CC(C(F)(F)F)C2)c2cccnc12 (racemic) [Compound 493, 2-(4-Amino-tetrahydro-pyran-4-yl)-N-[1-(8-cyano-quinolin-5-yl)-5-trifluoromethyl-piperidin-3-yl]-acetamide hydrochloride]
18 | 1000 to 10000 nM | C[C@H]1C[C@@H](NC(=O)C2CCCN2C)CN(c2ccnc3nccnc23)C1 (stereo partly drawn) [Compound 172, Methyl-N-[(3R,5S)-5-methyl-1-[pyrido[2,3-b]pyrazin-8-yl]piperidin-3-yl]pyrrolidine-2-carboxamide]
19 | 1000 to 10000 nM | CCN(CC)CCNCC1CCN(c2ccc(C#N)c3ncccc23)CC1 [Compound 401, 5-{4-[(2-Diethylamino-ethylamino)-methyl]-piperidin-1-yl}-quinoline-8-carbonitrile]
20 | < 1000 nM | CC1(C)C[C@@H](N)CN(c2ccc(C#N)c3nccnc23)C1 [Compound 210, 8-[(5R)-5-amino-3,3-dimethylpiperidin-1-yl]quinoxaline-5-carbonitrile hydrochloride]
21 | < 1000 nM | C[C@H]1C[C@@H](NC(=O)CC2CCN(CC(F)F)CC2)CN(c2ccc(C#N)c3nccnc23)C1 [Compound 234, N-[(3R,5S)-1-(8-cyanoquinoxalin-5-yl)-5-methylpiperidin-3-yl]-2-[1-(2,2-difluoroethyl)piperidin-4-yl]acetamide]
22 | < 1000 nM | CC(C(=O)N[C@@H]1C[C@H](C)CN(c2ccc(C(F)F)c3ncccc23)C1)N1CC(O)C1 (stereo partly drawn) [Compound 309, N-[(3R,5S)-1-[8-(difluoromethyl)quinolin-5-yl]-5-methylpiperidin-3-yl]-2-(3-hydroxyazetidin-1-yl)propanamide]
23 | 1000 to 10000 nM | C[C@H]1C[C@@H](NC(=O)CN(C)C)CN(c2ccc(F)c3ncccc23)C1 [Compound 469, 2-Dimethylamino-N-[(3R,5S)-1-(8-fluoro-quinolin-5-yl)-5-methyl-piperidin-3-yl]-acetamide]
24 | < 1000 nM | CCN1CCC(NC(=O)C2CN(c3ccc(C#N)c4ncccc34)CC(F)(F)C2)CC1 (stereo not drawn) [Compound 532, 1-(8-Cyano-quinolin-5-yl)-5,5-difluoro-piperidine-3-carboxylic Acid (1-ethyl-piperidin-4-yl)-amide]
25 | 1000 to 10000 nM | C[C@H]1C[C@@H](NC(=O)C2(CO)CC2)CN(c2ccc(C#N)c3nccnc23)C1 [Compound 162, N-[(3R,5S)-1-(8-cyanoquinoxalin-5-yl)-5-methylpiperidin-3-yl]-1-(hydroxymethyl)cyclopropane-1-carboxamide]
26 | < 1000 nM | COCCN[C@@H]1C[C@H](C)CN(c2ccc(OC)c3nccnc23)C1 [Compound 67, (3R,5S)—N-(2-methoxyethyl)-1-(8-methoxyquinoxalin-5-yl)-5-methylpiperidin-3-amine]
27 | < 1000 nM | C[C@H]1C[C@@H](NC(=O)CC2CC2(F)F)CN(c2ccc(C#N)c3nccnc23)C1 (stereo partly drawn) [Compound 272, N-[(3R,5S)-1-(8-cyanoquinoxalin-5-yl)-5-methylpiperidin-3-yl]-2-(2,2-difluorocyclopropyl)acetamide]
28 | < 1000 nM | C[C@H]1C[C@@H](NC(=O)CC(C)(C)N)CN(c2ccc(C(F)(F)F)c3ncccc23)C1 [Compound 514, 3-Amino-3-methyl-N-[(3R,5S)-5-methyl-1-(8-trifluoromethyl-quinolin-5-yl)-piperidin-3-yl]-butyramide]
29 | < 1000 nM | CC(O)C(=O)N[C@@H]1C[C@H](C)CN(c2ccc(C(F)(F)F)c3ncccc23)C1 (stereo partly drawn) [Compound 278, 2-hydroxy-N-[(3R,5S)-5-methyl-1-[8-(trifluoromethyl)quinolin-5-yl]piperidin-3-yl]propanamide]
30 | < 1000 nM | C[C@H]1C[C@@H](NC(=O)CC2CCN(C)CC2)CN(c2ccc(C(F)F)c3ncccc23)C1 [Compound 316, N-[(3R,5S)-1-[8-(difluoromethyl)quinolin-5-yl]-5-methylpiperidin-3-yl]-2-(1-methylpiperidin-4-yl)acetamide]

From US10947213B1 (Merck Patent GmbH, priority 2015, dated 2021)
